Experimental data taken from PMC7496286, “The Selectivity of Fosfosal for STAT5b over STAT5a is Mediated by Arg566 in the Linker Domain” (Chembiochem, 2020).
Substitutions are numbered along the chain they refer to.

Legend:
STAT5a Trp566Arg = molecular target: T1, STAT5a Trp566Arg (Homo sapiens, UniProt P42229, W566R); assay: FP-based competitive binding assay, STAT5a Trp566Arg
T1 construct: His; made in house
T1 sequence (P42229 1-794 W566R): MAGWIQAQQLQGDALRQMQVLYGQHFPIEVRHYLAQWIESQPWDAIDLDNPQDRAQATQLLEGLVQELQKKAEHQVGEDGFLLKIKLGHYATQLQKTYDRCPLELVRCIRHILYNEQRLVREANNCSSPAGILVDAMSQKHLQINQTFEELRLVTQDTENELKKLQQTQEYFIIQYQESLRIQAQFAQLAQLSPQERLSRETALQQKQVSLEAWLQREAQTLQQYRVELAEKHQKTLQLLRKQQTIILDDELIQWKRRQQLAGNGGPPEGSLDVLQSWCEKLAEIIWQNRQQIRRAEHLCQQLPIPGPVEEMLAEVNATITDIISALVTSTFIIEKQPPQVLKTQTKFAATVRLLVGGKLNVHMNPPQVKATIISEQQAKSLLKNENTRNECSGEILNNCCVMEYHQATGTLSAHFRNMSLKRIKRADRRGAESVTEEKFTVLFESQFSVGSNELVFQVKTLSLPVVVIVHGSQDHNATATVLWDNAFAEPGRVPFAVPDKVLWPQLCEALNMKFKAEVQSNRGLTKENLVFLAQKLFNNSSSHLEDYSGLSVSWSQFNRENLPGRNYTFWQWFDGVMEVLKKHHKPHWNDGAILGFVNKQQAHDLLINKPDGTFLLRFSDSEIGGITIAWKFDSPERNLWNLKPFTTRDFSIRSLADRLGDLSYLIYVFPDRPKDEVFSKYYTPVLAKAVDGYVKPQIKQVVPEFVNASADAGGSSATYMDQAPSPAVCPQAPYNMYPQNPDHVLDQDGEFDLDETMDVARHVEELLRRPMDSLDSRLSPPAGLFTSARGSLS
Procedure: (§1) Fluorescence polarization assays
(§2) The ability of test compounds to displace 5-carboxyfluorescein-GY(PO3H2)LVLDKW (final concentration: 10 nM) from the SH2 domain of STAT5a/b proteins was analyzed. Proteins […]
(§3) was applied in dilution series comprising the following concentrations: 0.024 – 200 µM […]
(§4) and 0.146 – 600 µM (STAT5b Arg566Glu), respectively. The assays were performed in buffer containing 10 mM Tris, 50 mM NaCl, 1 mM DTT, 1 mM EDTA and 0.1% (v/v) NP-40. Fosfosal was dissolved in DMSO. STAT5a/b proteins and fosfosal were incubated at room temperature for 1 h before adding peptide. Samples were transferred to 384-well microtiter plates and fluorescence polarization was read after a further 1 h incubation time. All measurements were performed in triplicate (n=3), except for STAT5b (n=6) and STAT5a Trp566Arg (n=4). Percent binding was calculated based on a logarithmic curve fit using OriginPro 8G software. IC50 values were converted to Ki values using the published equation.[4] […]
(§5) [4] Z. Nikolovska-Coleska, R. Wang, X. Fang, H. Pan, Y. Tomita, P. Li, P. P. Roller, K.
(§6) Krajewski, N. G. Saito, J. A. Stuckey, S. Wang, Anal. Biochem. 2004, 332, 261-273.

[1] = molecular target: T2, STAT5a Trp566Arg/Lys644Met (Homo sapiens, UniProt P42229, K644M/W566R); assay: FP-based competitive binding assay, STAT5a Trp566Arg/Lys644Met
T2 construct: His; made in house
T2 sequence (P42229 1-794 W566R/K644M): T1 sequence (P42229 1-794 W566R) with K644M
Procedure: as §1, §2, §3, §4, §5, §6

STAT5a SH2 domain = molecular target: T3, STAT5a SH2 domain (Homo sapiens, UniProt P42229); assay: FP-based competitive binding assay, wild-type STAT5a
T3 construct: His; made in house
T3 sequence (P42229 1-794): T1 sequence (P42229 1-794 W566R) with R566W
Procedure: as §1, §2, §3, §4, §5, §6

| SMILES | Kd (STAT5a Trp566Arg) | Kd [1] | Kd (STAT5a SH2 domain) | IC50 (STAT5a Trp566Arg; STAT5a Trp566Arg) | Ki (STAT5a Trp566Arg; STAT5a Trp566Arg, Ki calculated from IC50, n=4) | increase of activity against STAT5a Trp566Arg compared to wild type STAT5a (STAT5a Trp566Arg; ratio of Ki values) | IC50 ([1]; STAT5a Trp566Arg/Lys644Met) | Ki ([1]; STAT5a Trp566Arg/Lys644Met, Ki calculated from IC50) | IC50 (STAT5a SH2 domain; wild-type STAT5a) | Ki (STAT5a SH2 domain; wild-type STAT5a, Ki calculated from IC50 with published equation) |
| --- | --- | --- | --- | --- | --- | --- | --- | --- | --- | --- |
| CC(C)C[C@H](NC(=O)[C@H](Cc1ccc(OP(=O)(O)O)cc1)NC(=O)CNC(=O)c1ccc2c(c1)C(=O)OC21c2ccc(O)cc2Oc2cc(O)ccc21)C(=O)N[C@H](C(=O)N[C@@H](CC(C)C)C(=O)N[C@@H](CC(=O)O)C(=O)N[C@@H](CCCCN)C(=O)N[C@@H](Cc1c[nH]c2ccccc12)C(=O)O)C(C)C [5-carboxyfluorescein-GY(PO3H2)LVLDKW] | 0.043 µM | 0.08 µM | 0.147 µM |  |  |  |  |  |  |  |
| O=C(O)c1ccccc1OP(=O)(O)O [fosfosal, O‐phosphorylated salicylic acid] |  |  |  | 21 ± 1.5 µM | 10.2 ± 0.7 µM | 14 fold | 24.5 ± 1.4 µM | 12.3 ± 0.6 µM | 299 ± 17 µM | 148 ± 9 µM |
